These results are taken from US6833372B2, “Non-peptide GnRH agents, Pharmaceutical compositions, and methods for their use” (Pfizer, Inc., priority 2002, dated 2004).

The structures appear in SMILES notation. Converted amounts (≈) assume the structure as drawn. Read-outs that look alike come from different tables or passages of the source. Some results are limits rather than exact numbers.

Data set [1] can be described thus: In vitro metabolism: disappearance of parent compound in monkey liver microsomes. It counts as in vitro ADME. The following applies: 5 uM compound, 30 minutes 37° C. The protocol:
(§1) Human, rat, dog, and monkey liver microsomes were isolated by differential centrifugation. Specimens of human liver were obtained from the International Institute for the Advancement of Medicine (Scranton, Pa.). The disappearance of the parent compound was studied in a mixture containing 5 uM compound, 0.5 mg/ml microsomal protein, and 2 mM NADPH in 50 mM K phosphate buffer, pH 7.4. Samples were incubated for 30 minutes at 37° C. The reaction was terminated by the addition of acetonitrile and compounds analyzed by LC-MS as described above.
For orientation: Microsomes from liver hold many membrane-bound enzymes, among them those of drug oxidation.

In data set [2] the target is T1, rat GnRH receptor (Rattus norvegicus, UniProt P30969).
T1 construct: or rat pituitaries (Pel Freez Biologicals, Rogers, Ark.) were homogenized; tissue Pel Freez Biologicals; host or cells: rat pituitaries (membrane preparation)
T1 sequence (P30969 1-327): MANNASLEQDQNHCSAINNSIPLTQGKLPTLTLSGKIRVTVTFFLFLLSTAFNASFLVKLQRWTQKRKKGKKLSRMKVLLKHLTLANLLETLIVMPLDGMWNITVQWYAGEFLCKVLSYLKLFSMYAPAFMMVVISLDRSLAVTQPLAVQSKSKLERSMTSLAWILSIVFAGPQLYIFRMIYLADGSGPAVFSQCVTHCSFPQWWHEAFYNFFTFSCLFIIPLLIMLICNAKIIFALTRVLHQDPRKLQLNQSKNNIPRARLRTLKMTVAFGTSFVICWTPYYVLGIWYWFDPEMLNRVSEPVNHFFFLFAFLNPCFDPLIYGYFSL
In words: Radioligand binding: inhibition of 125I-GnRH-A binding to rat GnRH receptor (rat pituitary membranes). The following applies: read-out: Ki (nM), Inhibition Binding of 125I-GnRH-A to GnRH Receptors. An outline of the steps: (§2)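 Membranes from rat pituitaries, or HEK 293 cells stably expressing mouse or human receptor, incubated 1 hour at room temperature with ~0.04-0.06 nM radioligand (HEPES pH 7.4, EDTA, MgCl2, BSA) and competitor at 0.1-10,000 nM. Bound ligand collected by GF/C filtration and counted; Ki derived from IC50 by Cheng-Prusoff.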

A short description of data set [3]: In vitro metabolism: disappearance of parent compound in dog liver microsomes. It counts as in vitro ADME. The following applies: 5 uM compound, 30 minutes 37° C. The protocol:
as §1

Data set [4] can be described thus: In vitro metabolism: disappearance of parent compound in human liver microsomes. The following applies: 5 uM compound, 0.5 mg/ml protein, 2 mM NADPH, 30 minutes 37° C. It counts as in vitro ADME. The method, then:
as §1

A short description of data set [5]: In vitro metabolism: disappearance of parent compound in rat liver microsomes (male, female). In kind it is in vitro ADME. The following applies: 5 uM compound, 30 minutes 37° C.; for Fem. Rat (FR) % rem. 30′: female rat liver microsomes; for Male Rat (MR) % rem. 30′: male rat liver microsomes. The protocol: as §1
The target in data set [6] is T2, human GnRH receptors (Homo sapiens, UniProt P30968).
T2 construct: expressed in transfected cells; host or cells: HEK 293 cells, stably transfected; membranes
T2 sequence (P30968 1-328): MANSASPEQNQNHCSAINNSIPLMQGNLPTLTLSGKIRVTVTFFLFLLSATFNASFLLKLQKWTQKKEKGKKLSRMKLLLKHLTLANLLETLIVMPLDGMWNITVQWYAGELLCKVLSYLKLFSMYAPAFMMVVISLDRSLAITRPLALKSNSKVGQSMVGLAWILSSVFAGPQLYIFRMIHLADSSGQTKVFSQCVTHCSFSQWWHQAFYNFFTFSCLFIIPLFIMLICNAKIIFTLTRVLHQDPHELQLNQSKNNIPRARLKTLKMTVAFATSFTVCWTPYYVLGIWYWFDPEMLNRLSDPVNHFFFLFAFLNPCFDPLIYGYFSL
In words: Radioligand binding: inhibition of 125I-GnRH-A binding to human GnRH receptor membranes. The following applies: HEK 293 cell membranes. Put shortly: as §2

Data set [7] is described as follows: Solubility at pH2 and pH6. In kind it is physicochemical.
Where [8] appears, read: pH 6, aqueous buffer, pH6, read-out: Solubility μg/ml pH6.

As usually defined, the Ki is a dissociation constant, usually derived from enzyme kinetics or from competition with a known ligand. As to `COc1nc(NCCCN2CCOCC2)nc(OC)c1NC(=O)c1ccc(Cc2cc3c(cc2C)C(C)(C)CCC3(C)C)o1` [Example B4, 5-(3,5,5,8,8-Pentamethyl-5,6,7,8-tetrahydro-naphthalen-2-ylmethyl)-furan-2-carboxylic Acid [4,6-dimethoxy-2-(3-morpholin-4-yl-propylamino)-pyrimidin-5-yl]-amide], the Monkey % rem. in data set [1] was 0%. The Ki in data set [2] was found to be 0.4 nM. In addition, the “Dog % rem. 30′” value in data set [3] amounted to 26%. Also, the “Human % rem. 30′” value in data set [4] was 38%. For the same compound, in data set [5], the “Fem. Rat (FR) % rem. 30′” value is 100% and the “Male Rat (MR) % rem. 30′” value was determined as 38%. The compound also displayed a Ki in data set [6] of 0.5 nM. For the same compound, the solubility in data set [7] (setting [8]) was determined as 2.5 µg/mL (≈ 4.13 µM).

As for `COc1nc(NCCN2CCCCC2)nc(OC)c1NC(=O)c1ccc(Cc2cc3c(cc2C)C(C)(C)OC3(C)C)o1` [Example D6, N-{4,6-Dimethoxy-2-[(2-piperidin-1-ylethyl)amino]pyrimidin-5-yl}-5-[(1,1,3,3,6-pentamethyl-1,3-dihydro-2-benzofuran-5-yl)methyl]-2-furamide], the Monkey % rem. in data set [1] amounted to 8%. In addition, the values for the Ki in data set [2] and in data set [6] were 0.86 nM and 1.2 nM, respectively. In data set [3], the “Dog % rem. 30′” value was 77%. Further, the “Human % rem. 30′” value in data set [4] was found to be 77%. In data set [5], the “Fem. Rat (FR) % rem. 30′” value was found to be 90%. Besides, the “Male Rat (MR) % rem. 30′” value in data set [5] is 74%.

Take `COc1nc(NCCN(C)C)nc(OC)c1NC(=O)c1ccc(Cc2cc3c(cc2C)C(C)(C)OC3(C)C)o1` [Example D10, N-(2-{[2-(Dimethylamino)ethyl]amino}-4,6-dimethoxypyrimidin-5-yl)-5-[(1,1,3,3,6-pentamethyl-1,3-dihydro-2-benzofuran-5-yl)methyl]-2-furamide]: the Monkey % rem. in data set [1] is listed as 28%. Also, the Ki in data set [2] turned out to be 2.6 nM. In addition, the “Dog % rem. 30′” value in data set [3] is 66%. In addition, the “Human % rem. 30′” value in data set [4] was 77%. In data set [5], the “Fem. Rat (FR) % rem. 30′” value is 79% and the “Male Rat (MR) % rem. 30′” value is on record as 66%. The Ki in data set [6] was determined as 7.3 nM.

For the compound `COc1nc(NCCCCN(C)C)nc(OC)c1NC(=O)c1ccc(Cc2cc3c(cc2C)C(C)(C)OC3(C)C)o1` [Example D11, N-(2-{[4-(Dimethylamino)butyl]amino}-4,6-dimethoxy-pyrimidin-5-yl)-5-[(1,1,3,3,6-pentamethyl-1,3-dihydro-2-benzofuran-5-yl)methyl]-2-furamide], in data set [1], the Monkey % rem. worked out at 20%. In addition, in data set [2], the inhibition constant Ki amounted to 0.5 nM. Besides, in data set [3], the “Dog % rem. 30′” value amounted to 56%. Besides, the “Human % rem. 30′” value in data set [4] was 62%. Also, in data set [5], the “Fem. Rat (FR) % rem. 30′” value is given as 56% and the “Male Rat (MR) % rem. 30′” value is 42%. Moreover, in data set [6], the inhibition constant Ki worked out at 1.1 nM.

For `COc1nc(NCCNCCN)nc(OC)c1NC(=O)c1ccc(Cc2cc3c(cc2C)C(C)(C)OC3(C)C)o1` [Example D12, N-[2-({2-[(2-aminoethyl)amino]ethyl}amino)-4,6-dimethoxypyrimidin-5-yl]-5-[(1,1,3,3,6-pentamethyl-1,3-dihydro-2-benzofuran-5-yl)methyl]-2-furamide], the Monkey % rem. in data set [1] is recorded as 37%. Also, the results for the Ki in data set [2] and in data set [6] were 0.8 nM and 1.2 nM, respectively. Further, the “Dog % rem. 30′” value in data set [3] is given as 59%. For the same compound, in data set [4], the “Human % rem. 30′” value is given as 81%. Besides, in data set [5], the “Fem. Rat (FR) % rem. 30′” value came to 80%. Besides, in data set [5], the “Male Rat (MR) % rem. 30′” value stood at 54%. The solubility is more than 30 µg/mL in data set [7] (pH 2, simulated gastric fluid, pH2, read-out: Solubility μg/ml pH2) and more than 30 µg/mL in data set [7] (setting [8]).

For `COc1nc(NCCN2CCNCC2)nc(OC)c1NC(=O)c1ccc(Cc2cc3c(cc2C)C(C)(C)OC3(C)C)o1` [Example D14, N-{4,6-Dimethoxy-2-[(2-piperazin-1-ylethyl)amino]-pyrimidin-5-yl}-5-[(1,1,3,3,6-pentamethyl-1,3-dihydro-2-benzofuran-5-yl)methyl]-2-furamide], in data set [1], the Monkey % rem. worked out at 63%. Besides, the Ki in data set [2] worked out at 0.4 nM; in data set [6], 3.5 nM. For the same compound, the “Dog % rem. 30′” value in data set [3] was determined as 98%. Also, the “Human % rem. 30′” value in data set [4] worked out at 86%. In data set [5], the “Fem. Rat (FR) % rem. 30′” value was found to be 90%. In addition, the “Male Rat (MR) % rem. 30′” value in data set [5] was 78%.

On to `COc1nc(N(CCCN)CCCN)nc(OC)c1NC(=O)c1ccc(Cc2cc3c(cc2C)C(C)(C)OC3(C)C)o1` [Example D16, N-{2-[Bis(3-aminopropyl)amino]-4,6-dimethoxypyrimidin-5-yl}-5-[(1,1,3,3,6-pentamethyl-1,3-dihydro-2-benzofuran-5-yl)methyl]-2-furamide], for which the Monkey % rem. in data set [1] amounted to 66%. Further, the Ki in data set [2] is 1.1 nM. For the same compound, the “Dog % rem. 30′” value in data set [3] is 97%. In addition, the “Human % rem. 30′” value in data set [4] is listed as 76%. In data set [5], the “Fem. Rat (FR) % rem. 30′” value was 95% and the “Male Rat (MR) % rem. 30′” value came to 34%. Further, the Ki in data set [6] came to 6.5 nM.

Turning to `COc1nc(NCCCN2CCN(CCCN)CC2)nc(OC)c1NC(=O)c1ccc(Cc2cc3c(cc2C)C(C)(C)OC3(C)C)o1` [Example D18, N-[2-({3-[4-(3-Aminopropyl)piperazin-1-yl]propyl}amino)-4,6-dimethoxypyrimidin-5-yl}-5-[(1,1,3,3,6-pentamethyl-1,3-dihydro-2-benzofuran-5-yl)methyl]-2-furamide], the Monkey % rem. in data set [1] came out at 80%. Also, in data set [2], the Ki stood at 0.3 nM. Further, the “Dog % rem. 30′” value in data set [3] is on record as 84%. The “Human % rem. 30′” value in data set [4] is on record as 82%. In data set [5], the “Fem. Rat (FR) % rem. 30′” value came to 97% and the “Male Rat (MR) % rem. 30′” value turned out to be 74%. Also, the Ki in data set [6] stood at 0.97 nM.

`COc1nc(N(CCCN2CCCCC2)CCCN2CCCCC2)nc(OC)c1NC(=O)c1ccc(Cc2cc3c(cc2C)C(C)(C)OC3(C)C)o1` [Example D21, N-{2-[Bis(3-piperidin-1-ylpropyl)amino]-4,6-dimethoxypyrimidin-5-yl}-5-[(1,1,3,3,6-pentamethyl-1,3-dihydro-2-benzofuran-5-yl)methyl]-2-furamide]: the Monkey % rem. in data set [1] was 85%. The Ki in data set [2] worked out at 1.3 nM. Further, the “Dog % rem. 30′” value in data set [3] is 67%. The “Human % rem. 30′” value in data set [4] came to 89%. In data set [5], the “Fem. Rat (FR) % rem. 30′” value is reported as 89% and the “Male Rat (MR) % rem. 30′” value came to 87%. For the same compound, the Ki in data set [6] is 3.3 nM.

`COc1nc(NCCCN2CCCCC2)nc(OC)c1NC(=O)c1ccc(Cc2cc3c(cc2C)C(C)(C)OC3(C)C)o1` [Example D22, N-(4,6-Dimethoxy-2-{[3-piperidin-1-ylpropyl)amino]-pyrimidin-5-yl}-5-[(1,1,3,3,6-pentamethyl-1,3-dihydro-2-benzofuran-5-yl)methyl]-2-furamide]: in data set [1], the Monkey % rem. is reported as 5%. The Ki in data set [2] was determined as 0.3 nM. For the same compound, in data set [3], the “Dog % rem. 30′” value came out at 87%. Also, the “Human % rem. 30′” value in data set [4] was 66%. Also, in data set [5], the “Fem. Rat (FR) % rem. 30′” value is recorded as 94% and the “Male Rat (MR) % rem. 30′” value turned out to be 69%. The compound further registered a Ki in data set [6] of 0.96 nM.

For `COCCOc1nc(OC)c(NC(=O)c2ccc(Cc3cc4c(cc3C)CCCC4(C)C)o2)c(OC)n1` [Example E1, 5-(3,8,8-Trimethyl-5,6,7,8-tetrahydro-naphthalen-2-ylmethyl)-furan-2-carboxylic acid [4,6-dimethoxy-2-(2-methoxy-ethoxy)-pyrimidin-5-yl]-amide], the Monkey % rem. in data set [1] came out at 0%. Besides, the Ki in data set [2] worked out at 7 nM. Also, in data set [3], the “Dog % rem. 30′” value was 28%. The “Human % rem. 30′” value in data set [4] stood at 48%. Besides, in data set [5], the “Fem. Rat (FR) % rem. 30′” value amounted to 76% and the “Male Rat (MR) % rem. 30′” value is reported as 12%. The inhibitory constant (Ki) in data set [6] was determined as 3.4 nM. Further, the solubility in data set [7] (setting [8]) worked out at 2 µg/mL (≈ 3.92 µM).
